Results taken from patent US20140066363A1, “CARBOHYDRATE NANOPARTICLES FOR PROLONGED EFFICACY OF ANTIMICROBIAL PEPTIDE” (priority 2011, published 2014).

Key:
Type in all cases: cell-based, Listeria monocytogenes
L. monocytogenes [1] = experiment: BHI-agar deep-well model of nisin depletion (21 days, 4° C.) with bioassay, PG derivatives
Protocol: Nisin activity, either for those freshly prepared or stored in BHI agar deep-well, was determined as described by Pongtharangkul and Demirci (2004) with modifications. Agar diffusion bioassay was used to determine the nisin activity against L. monocytogenes. BHI (3.7%) solution containing 0.75% agar and 1.0% Tween 20 was prepared and autoclaved. After cooling to approximately 40° C., the solution was inoculated by a 1.0% volume of BHI broth containing L. monocytogenes V7 (ca. 108 colony-forming units/mL). To each square Petri-dish plate (10×10 cm), a 32 mL inoculated BHI agar solution was added and allowed to solidify. Thereafter, holes with 7.0 mm diameter were made using a cork borer, and 100 μL of each nisin preparation was added to each agar well. The Petri-dish plates were then incubated for 24 h at room temperature, and the size of inhibitory ring was measured to indicate the activity against L. monocytogenes.
In this study, a BHI-agar deep-well model was established to mimic the depletion of nisin at nutrient-containing surfaces, such as a food surface (FIG. 1). BHI is a nutritious culture medium that supplies protein and other nutrients necessary to support the growth of fastidious and nonfastidious microorganisms. It contains infusions from calf brains and beef hearts, proteose and peptone, dextrose, sodium chloride, and disodium phosphate. […] Therefore, BHI is an ideal nutrient model for studying nisin depletion and retention. Our experiments have consistently shown that BHI-containing broths and gels lead to rapid depletion of peptide activity. In a deep well filled with a liquid peptide preparation, peptide molecules diffuse from the solution into the gel (causing diffusion-based depletion), and BHI components diffuse from the agar gel into the solution (causing irreversible peptide adsorption or degradation).
For continuous sampling at various stages of storage, nisin preparations were added to the deep wells of the BHI-agar gel. For the deep-well storage, the inner surface of a well was used to mimic the outer surface of solid food. […]

L. monocytogenes V7 = experiment: BHI-agar deep-well model of nisin depletion (50 days, 4° C.) with bioassay, emulsions
Protocol: To prepare emulsions, PG-OS and WCS-OS were each dissolved in sodium acetate buffer (50 mM, pH 5.5, 22° C.) to form a solution of 10 mg/mL. As a reference, 1.0 mg/mL of Tween 20 solution was also prepared using the sodium acetate buffer. Vegetable oil was added to each emulsifier solution, at twice (for PG-OS and WCS-OS) or 20 times (Tween 20) the weight of the emulsifier. […] Each mixture was further diluted with the same volume of sodium acetate buffer. […] These emulsions were sterilized using a boiling-water bath for 3 min before further tests. Nisin activity, either for those freshly prepared or stored in BHI agar deep-well, was determined as described by Pongtharangkul and […] (2004) with modifications. Agar diffusion bioassay was used to determine the nisin activity against L. monocytogenes. […] After cooling to approximately 40° C., the solution was inoculated by a 1.0% volume of BHI broth containing L. monocytogenes V7 (ca. 108 colony-forming units/mL). To each square Petri-dish plate (10×10 cm), a 32 mL inoculated BHI agar solution was added and allowed to solidify. […] The Petri-dish plates were then incubated for 24 h at room temperature, and the size of inhibitory ring was measured to indicate the activity against L. monocytogenes. […] The hot solution (225 mL) was poured into a 600-mL beaker to a height of 40 mm. After gel solidification, four wells (from gel surface to bottom) were made in each beaker using a 7.0-mm borer.

L. monocytogenes [2] = experiment: Control storage of emulsions in regular test tubes at 4° C. with bioassay; conditions: 150 μg/mL nisin
Protocol: The label “free nisin” denotes the preparation containing nisin only in buffer. The total initial concentration of nisin was 150 μg/mL for each preparation. One portion of each preparation was applied to the model system (labeled “Model”), and another portion was stored in a regular test tube as the control (labeled “Control”). Both model and control groups were aliquoted after various storage periods for the activity tests.
Nisin activity, either for those freshly prepared or stored in BHI agar deep-well, was determined as described by Pongtharangkul and Demirci (2004) with modifications. Agar diffusion bioassay was used to determine the nisin activity against L. monocytogenes. BHI (3.7%) solution containing 0.75% agar and 1.0% Tween 20 was prepared and autoclaved. After cooling to approximately 40° C., the solution was inoculated by a 1.0% volume of BHI broth containing L. monocytogenes V7 (ca. 108 colony-forming units/mL). To each square Petri-dish plate (10×10 cm), a 32 mL inoculated BHI agar solution was added and allowed to solidify. Thereafter, holes with 7.0 mm diameter were made using a cork borer, and 100 μL of each nisin preparation was added to each agar well. The Petri-dish plates were then incubated for 24 h at room temperature, and the size of inhibitory ring was measured to indicate the activity against L. monocytogenes. […]

[3] = initial nisin 150 μg/mL, calculated from ring size by standard curve

nisin [free nisin]
retained activity at day 5 (L. monocytogenes [1]; deep wells in BHI-agar gel, summary): negligible | residual nisin activity after 7 days (L. monocytogenes [1]; deep-well model, 4° C., 100 μg/mL nisin): negligible | nisin activity at 0 day (L. monocytogenes [1]; deep-well model, initial test, 100 μg/mL nisin): highest nisin activity | size of inhibitory ring after 40 days, model groups (L. monocytogenes V7; deep-well model, 4° C., 150 μg/mL nisin): undetectable | available nisin after 5 days (L. monocytogenes V7; [3]): 10.2 µg/mL | available nisin after 20 days (L. monocytogenes V7; [3]): < 1 µg/mL | available nisin after 40 days (L. monocytogenes V7; [3]): negligible | change of inhibitory ring size during storage, control groups (L. monocytogenes [2]): did not show an appreciable change
